Activity calls are given as the source filed them. No cut-off for these calls is given here.
What was measured:
HK-2 = test: Genotoxicity in human HK2 cells assessed as induction of DNA strand breakage at 20 uM after 6 hrs by DAPI staining based alkaline comet assay; type: toxicity, cell-based; settings: hk-2, 6 h
[1] = target: T1, Nuclear factor erythroid 2-related factor 2 (Mus musculus) (UniProt Q60795); test: Activation of Nrf2 in wild type mouse Hepa1c1c7 cells cytosolic fraction assessed as induction of quinone reductase activity using 2,6-DCIP as substrate in presence of NADH incubated for 48 hrs measured for 1 min
T1 sequence (whole entry): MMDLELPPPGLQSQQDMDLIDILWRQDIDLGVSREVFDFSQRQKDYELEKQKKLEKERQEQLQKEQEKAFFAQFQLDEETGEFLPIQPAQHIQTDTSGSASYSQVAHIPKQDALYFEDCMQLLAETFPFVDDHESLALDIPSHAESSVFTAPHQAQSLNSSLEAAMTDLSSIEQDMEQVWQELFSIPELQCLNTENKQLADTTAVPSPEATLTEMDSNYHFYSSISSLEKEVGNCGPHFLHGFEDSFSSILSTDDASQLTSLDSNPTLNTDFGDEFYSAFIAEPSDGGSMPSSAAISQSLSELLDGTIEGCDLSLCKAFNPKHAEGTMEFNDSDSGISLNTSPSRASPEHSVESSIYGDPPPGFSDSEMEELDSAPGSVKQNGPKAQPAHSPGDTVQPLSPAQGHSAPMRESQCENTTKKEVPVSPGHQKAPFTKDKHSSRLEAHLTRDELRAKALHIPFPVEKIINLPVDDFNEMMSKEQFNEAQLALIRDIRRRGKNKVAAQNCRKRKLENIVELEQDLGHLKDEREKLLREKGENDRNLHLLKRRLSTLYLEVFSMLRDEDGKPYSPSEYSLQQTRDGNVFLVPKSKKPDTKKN

Rattus norvegicus [2] = test: In vivo induction of GST activity in Wistar rat mammary gland cytosolic fraction at 15 mg/kg, po qd administered over 2 weeks by measuring GS-CDNB adduct formation using CDNB/GSH as substrate measured for 1 min relative to control; type: functional
Rattus norvegicus [3] = test: In vivo induction of quinone reductase activity in Wistar rat liver cytosolic fraction at 15 mg/kg, po qd administered over 2 weeks using 2,6-DCIP as substrate relative to control; type: functional
[4] = target: T1, Nuclear factor erythroid 2-related factor 2 (Mus musculus); test: Ratio of CD for activation of Nrf2 in mutant mouse BpRc1 cells cytosolic fraction to CD for activation of Nrf2 in wild type mouse Hepa1c1c7 cells cytosolic fraction; type: cell-based
Salmonella typhimurium = test: Mutagenicity in Salmonella typhimurium TA98 in presence of mouse liver S9 fraction by Ames test; type: toxicity, organism-based; settings: salmonella enterica subsp. enterica serovar typhimurium
Rattus norvegicus [5] = test: In vivo induction of quinone reductase activity in Wistar rat mammary gland cytosolic fraction at 15 mg/kg, po qd administered over 2 weeks using 2,6-DCIP as substrate relative to control; type: functional
[6] = target: T1, Nuclear factor erythroid 2-related factor 2 (Mus musculus); test: Activation of Nrf2 in wild type mouse Hepa1c1c7 cells cytosolic fraction assessed as induction of quinone reductase activity at 10 uM using 2,6-DCIP as substrate in presence of NADH incubated for 48 hrs measured for 1 min relative to control
Rattus norvegicus [7] = test: In vivo induction of GST activity in Wistar rat colon cytosolic fraction at 15 mg/kg, po qd administered over 2 weeks by measuring GS-CDNB adduct formation using CDNB/GSH as substrate measured for 1 min relative to control; type: functional
[8] = target: T1, Nuclear factor erythroid 2-related factor 2 (Mus musculus); test: Activation of Nrf2 in mutant mouse BpRc1 cells cytosolic fraction assessed as induction of quinone reductase activity at 10 uM using 2,6-DCIP as substrate in presence of NADH incubated for 48 hrs measured for 1 min relative to control; type: cell-based
Rattus norvegicus [9] = test: In vivo induction of CYP450 activity in Wistar rat colon microsomal fraction at 15 mg/kg, po qd administered over 2 weeks by measuring EROD activity using 7-ethoxyresorufine as substrate measured for 5 mins; type: ADME, organism-based; settings: microsomes
TK-10 = test: Cytotoxicity against human TK10 cells assessed as cell survival after 24 hrs by SRB assay; type: functional, cell-based; settings: TK-10, 24 h
MCF7 = test: Cytotoxicity against human MCF7 cells assessed as cell survival at 100 uM after 24 hrs by SRB assay relative to control; type: functional
[10] = Cytotoxicity against mutant mouse BpRc1 cells after 48 hrs by SRB assay; type: functional, cell-based; settings: BPrc1, 48 h
[11] = target: T1, Nuclear factor erythroid 2-related factor 2 (Mus musculus); test: Induction of Nrf2 nuclear translocation in mouse Hepa1c1c7 cells at 20 uM after 6 hrs by DAPI/Hoechst 33258 staining-based immunofluorescence method; type: cell-based
[12] = target: T1, Nuclear factor erythroid 2-related factor 2 (Mus musculus); test: Activation of Nrf2 in mutant mouse BpRc1 cells cytosolic fraction assessed as induction of quinone reductase activity using 2,6-DCIP as substrate in presence of NADH incubated for 48 hrs measured for 1 min; type: cell-based
Rattus norvegicus [13] = test: Toxicity in Wistar rat assessed as effect on body weight at 15 mg/kg, po qd administered over 2 weeks; type: organism-based; settings: in vivo, 336 h
Rattus norvegicus [14] = test: In vivo induction of GST activity in Wistar rat liver cytosolic fraction at 15 mg/kg, po qd administered over 2 weeks by measuring GS-CDNB adduct formation using CDNB/GSH as substrate measured for 1 min relative to control; type: functional
[15] = target: T1, Nuclear factor erythroid 2-related factor 2 (Mus musculus); test: Ratio of activation of wild type Nrf2 in mouse Hepa1c1c7 cells cytosolic fraction to activation of Nrf2 in mutant mouse BpRc1 cells cytosolic fraction; type: cell-based
Rattus norvegicus [16] = test: In vivo induction of quinone reductase activity in Wistar rat colon cytosolic fraction at 15 mg/kg, po qd administered over 2 weeks using 2,6-DCIP as substrate relative to control; type: functional
Rattus norvegicus [17] = test: In vivo induction of CYP450 activity in Wistar rat mammary gland microsomal fraction at 15 mg/kg, po qd administered over 2 weeks by measuring EROD activity using 7-ethoxyresorufine as substrate measured for 5 mins; type: ADME, organism-based; settings: microsomes
Rattus norvegicus [18] = test: Toxicity in Wistar rat assessed as effect on behavior at 15 mg/kg, po qd administered over 2 weeks; type: organism-based; settings: in vivo, 336 h
[19] = Cytotoxicity against wild type mouse Hepa1c1c7 cells after 48 hrs by SRB assay; type: functional, cell-based; settings: Hepa-1c1c7, 48 h
Rattus norvegicus [20] = test: In vivo induction of CYP450 activity in Wistar rat liver microsomal fraction at 15 mg/kg, po qd administered over 2 weeks by measuring EROD activity using 7-ethoxyresorufine as substrate measured for 5 mins; type: ADME, organism-based; settings: microsomes
[21] = Ratio of IC50 for cytotoxicity against wild type mouse Hepa1c1c7 cells to CD for activation of Nrf2 in wild type mouse Hepa1c1c7 cells cytosolic fraction
[22] = Ratio of IC50 for cytotoxicity against mutant mouse BpRc1 cells to CD for activation of Nrf2 in mutant mouse BpRc1 cells cytosolic fraction

O=C(/C=C/c1cccnc1Br)c1ccccc1O
Activity (HK-2): Non-Toxic
CD [1]: 14 µM
Activity (Rattus norvegicus [2]): 10%
Activity (Rattus norvegicus [3]): 25%
Ratio [4]: 0.71
Activity (Salmonella typhimurium): Non-Toxic
Activity (Rattus norvegicus [5]): 13%
fold change (FC) [6]: 1.57
Activity (Rattus norvegicus [7]): 16%
fold change (FC) [8]: 1.98
Activity (Rattus norvegicus [9]): Non-Toxic
IC50 (TK-10): 26 µM
Activity (MCF7): Active
IC50 [10]: > 200 µM
Activity [11]: Active
CD [12]: 10 µM
Activity (Rattus norvegicus [13]): Non-Toxic
Activity (Rattus norvegicus [14]): 29%
Ratio [15]: 0.8
Activity (Rattus norvegicus [16]): 11%
Activity (Rattus norvegicus [17]): Non-Toxic
Activity (Rattus norvegicus [18]): Non-Toxic
IC50 [19]: 39 µM
Activity (Rattus norvegicus [20]): Non-Toxic
Ratio [21]: 2.8
Ratio [22]: >20

— ChEMBL document CHEMBL4130341 (Medchemcomm, 2016)
